Literature values, collected in patent EP4223883A1, “PROCESS FOR PRODUCING TRYPTAMINES” (Infinit Biosystems, priority 2022, dated 2023).

Assays:
[1] = tested on: PSI M, N-methyltransferase, Psilocybe cubensis, Uniprot: P0DPA9
[2] = tested on: T1, PSI H, Tryptamine 4-monooxygenase, Psilocybe cubensis, Uniprot: A0A286LF02; conditions: substrate taken from the text, not given; Km of the cofactor (NADPH) considered equal
T1 sequence (A0A286LF02 20-507): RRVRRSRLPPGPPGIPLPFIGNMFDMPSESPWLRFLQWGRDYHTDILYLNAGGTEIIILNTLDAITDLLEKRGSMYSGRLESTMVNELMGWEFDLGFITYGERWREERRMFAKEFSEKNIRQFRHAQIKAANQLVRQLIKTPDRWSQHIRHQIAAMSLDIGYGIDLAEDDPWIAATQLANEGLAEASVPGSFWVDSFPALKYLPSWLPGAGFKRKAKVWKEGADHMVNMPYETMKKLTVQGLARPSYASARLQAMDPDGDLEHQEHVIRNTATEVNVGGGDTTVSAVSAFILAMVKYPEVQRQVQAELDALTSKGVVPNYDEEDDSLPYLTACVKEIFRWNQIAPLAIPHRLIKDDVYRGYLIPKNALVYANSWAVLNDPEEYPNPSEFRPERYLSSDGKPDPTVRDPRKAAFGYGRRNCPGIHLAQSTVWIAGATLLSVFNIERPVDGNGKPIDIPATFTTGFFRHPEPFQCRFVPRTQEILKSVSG

[3] = target: T2, PSI K, 4-hydroxytryptamine kinase, Psilocybe cubensis, Uniprot: P0DPA8 (Psilocybe cubensis, UniProt P0DPA8); conditions: substrate taken from the text, not given; Km of the cofactor (ATP) considered equal
T2 sequence (P0DPA8 1-362): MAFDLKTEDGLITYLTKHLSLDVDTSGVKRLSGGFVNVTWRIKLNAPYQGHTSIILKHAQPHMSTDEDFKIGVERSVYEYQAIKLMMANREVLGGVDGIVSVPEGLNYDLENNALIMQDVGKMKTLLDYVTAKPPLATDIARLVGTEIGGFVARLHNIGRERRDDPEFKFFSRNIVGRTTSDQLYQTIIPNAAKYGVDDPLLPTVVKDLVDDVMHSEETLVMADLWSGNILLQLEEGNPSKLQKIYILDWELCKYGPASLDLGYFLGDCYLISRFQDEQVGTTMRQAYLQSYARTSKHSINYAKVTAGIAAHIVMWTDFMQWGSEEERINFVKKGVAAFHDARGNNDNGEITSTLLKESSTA

## NCCc1c[nH]c2cccc(OP(=O)(O)O)c12 [norbaeocystin]
[1]
  Km: 165 µM

## NCCc1c[nH]c2ccccc12 [tryptamine, Tryptamine]
[2]
  Km: 220 µM

## NCCc1c[nH]c2cccc(O)c12 [4-hydroxytryptamine]
[3]
  Km: 80 µM
